Usually IC50 stands for the midpoint of a concentration-inhibition curve.

This assay addresses T1, Src (Homo sapiens, UniProt P12931).
T1 construct: recombinant GST-Src (full-length) and GST-Kinase (270–536 aa); endogenous Src in cell lysates
Nature of the assay: matrine-bead pull-down of recombinant GST-Src/GST-Kinase competed by free matrine; CETSA and DARTS in lysates; IC50 from Src kinase activity kit in SKOV3 cells ([…] ATP). Format: binding.

Molecules are shown by their SMILES.

T1 sequence (P12931 2-536): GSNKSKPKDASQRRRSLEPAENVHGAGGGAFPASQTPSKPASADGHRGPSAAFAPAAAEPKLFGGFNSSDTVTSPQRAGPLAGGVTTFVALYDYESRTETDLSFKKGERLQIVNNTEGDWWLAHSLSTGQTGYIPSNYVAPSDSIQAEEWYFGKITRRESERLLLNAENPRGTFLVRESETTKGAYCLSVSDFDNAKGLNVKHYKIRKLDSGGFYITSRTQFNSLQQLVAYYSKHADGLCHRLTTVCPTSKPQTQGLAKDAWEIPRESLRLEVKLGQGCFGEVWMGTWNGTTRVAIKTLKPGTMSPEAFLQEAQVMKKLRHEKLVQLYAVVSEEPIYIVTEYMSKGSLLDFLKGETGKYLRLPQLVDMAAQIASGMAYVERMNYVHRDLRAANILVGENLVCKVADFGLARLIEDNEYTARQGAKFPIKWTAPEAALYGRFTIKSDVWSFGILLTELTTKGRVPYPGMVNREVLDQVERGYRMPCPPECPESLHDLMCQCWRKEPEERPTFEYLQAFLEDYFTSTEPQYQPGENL

For the compound `O=C1CCC[C@@H]2[C@H]3CCCN4CCC[C@@H](CN12)[C@@H]34` [MA, matrine], the IC50 was 7.37 mM.

For the origin of these results see PMC8511016, “Src acts as the target of matrine to inhibit the proliferation of cancer cells by regulating phosphorylation signaling pathways” (Cell Death & Disease, 2021).
